Patent US7906620B2, “Tumor associated antigen, peptides thereof, and use of same as anti-tumor vaccines” (Yeda Research and Development Co. Ltd., priority 2002, dated 2011)

How the values were obtained:
T2 cells = test: In vitro priming of human CTL with prostate peptides, cytolytic assay on peptide pulsed T2 cells; type: cell-based; settings: three healthy and two CaP individuals
Description: FIGS. 16A-16D are graphs showing in vitro priming of human CTLs. PBMC of leukopheresis samples were isolated and in vitro CTL primed with peptide pulsed autologous DC. PBMC were supplemented with IL-7 and two days later IL-2 was added and renewed every three days. Additional two cycles of re-stimulation were done every 7 days over peptide pulsed monocytes. Seven days after the last stimulation cytolytic assay was performed using peptide pulsed or non-pulsed T2 cells as target. In FIG. 16A, PBMC derived from CaP individual (donor A) were primed and re-stimulated with STEAP-3 pulsed DC/monocytes. Target cells: relevant (STEAP-3) and non-relevant peptide (HIV-derived, PAP-3) pulsed T2 cells. In FIG. 16B, PBMC derived from healthy individual (donor B) were primed and restimulated with PAP-3 pulsed DC/monocytes. Target cells: relevant (PAP-3) and non-relevant peptide (HIV-derived, STEAP-3) pulsed T2 cells. PBMC derived from healthy individual (donor C) were primed and restimulated with either PAP-3 (C-1; FIG. 16C) or STEAP-3 (C-2; FIG. 16D) pulsed DC/monocytes. Relevant (PAP-3 or STEAP-3) peptide pulsed and non-pulsed T2 cells were used as targets.
FIGS. 17A-17C are graphs showing peptide specific CTL induced in human PBMC by PAP-3 (FIG. 17A), STEAP-3 (FIG. 17B), and PSGR-1 (FIG. 17C). PBMC from a healthy donor were stimulated by peptide pulsed DC as described and CTL activity was tested on homologous peptide pulsed T2 target cells (HLA-A2 lymphoma, TAP deficient).
Finally, peripheral blood of two healthy (donors B, C) and one CaP (donor A) individuals were tested for the existence of CTL precursors (FIGS. 16A-16D). Leukopheresis products of the donors were obtained from Barzilai Medical Center (Ashkelon, Israel) according to Declaration of Helsinki Principles. PBMC were isolated by centrifugation on Ficoll-Plaque Plus gradients (Amersham, Sweden). In vitro priming of CTL was done over autologous DC that were prepared from monocytes by IL-4 and GM-CSF treatment and maturated with a IL-1β, IL-6, TNF-α and PGE2 cocktail. DC were pulsed with synthetic peptides and PBMC were supplemented with IL-7. Two days later, IL-2 was added and renewed every three days. Two additional re-stimulations were done every 7 days over peptide pulsed monocytes. Seven days after the third stimulation, lymphocytes were harvested and a cytolytic assay was performed using relevant/non-relevant peptide pulsed or non-pulsed at all T2 cells.
(§1) When human PBMC are stimulated in vitro by PAP-3 and STEAP-3 peptides, the resulting CTL can lyse target cells (T2, EL4/HHD) pulsed with PAP-3, STEAP-3 or PSGR-1 and PSGR-6 peptides. (FIGS. 15 and 16). Here, these findings were expanded and peripheral blood of three healthy and two CaP individuals was tested for the existence of CTL precursors against PAP-3, STEAP-3 and PSGR-1 peptides. Leukopheresis products of the donors were obtained from Barzilai Medical Center (Ashkelon, Israel) according to Declaration of Helsinki Principles. PBMC were isolated by centrifugation on Ficoll-Plaque Plus gradients (Amersham, Sweden). In vitro priming of CTL was done over autologous DC that were prepared from monocytes by IL-4 and GM-CSF treatment and matured with a IL-1β, IL-6, TNF-α and PGE2 cocktail. DC were pulsed with synthetic peptides and PBMC were supplemented with IL-7. Two days later, IL-2 was added and renewed every three days. Two additional re-stimulations were done every 7 days over peptide pulsed monocytes. Seven days after the third stimulation, lymphocytes were harvested and a cytolytic assay was performed using relevant/non-relevant peptide pulsed or non-pulsed T2 cells (FIGS. 17A-17C) and LNCaP (high and low HLA expressors) cells as targets (FIGS. 18A-18E). […] Monitoring of HLA-A2-peptide specific CD8+ cells for PAP-3 and STEAP-3 was also performed by MHC-peptide tetramers (tetramers of recombinant HLA-A2.1-beta2 microglobulin single chain with peptides were prepared in collaboration with Dr Yoram Reiter, Technion, Haifa). […]

LNCaP = test: Lysis of LNCaP tumor cells by human anti-peptide CTL; type: cell-based; settings: LNCaP high and low HLA expressors as targets
Description: FIGS. 18A-18E are graphs showing that human anti-peptide CTL from a healthy donor kills LNCaP tumor cells. PBMC from a healthy donor (FIGS. 18A-18C) or a CaP patient (FIGS. 18D-18E) were stimulated with PAP-3 (FIGS. 18A, 18D), STEAP-3 (FIGS. 18B, 18E) or PSGR-1 (FIG. 18C) as described. LNCaP/CRL1740 (LNCaP high in HLA-A2.1 expression), LNCaP/CRL10995 (LNCaP low in HLA-A2.1 expression) and PC3 (negative for HLA-A2.1) served as targets in CTL assays.
as §1

ILLVMGVDV (listed as Homo sapiens) [PSGR-1, PSGR start position 202]
activation of CTL precursors in PBMC derived from CaP patients and healthy donors (T2 cells): activated CTL precursors | lysis of tumor cells expressing endogenously processed proteins (LNCaP): lyse tumor cells
